Results: ChEMBL document CHEMBL3885881, “DrugMatrix”

Organism: Rattus norvegicus
Assay: DrugMatrix - Regimen: Daily Repeat
Format: toxicity, organism-based, Sprague-Dawley
Design: regimen Daily Repeat, gender Male, age 6-8 weeks
Conditions: in vivo, po, route oral GAVAGE, vehicle 100 % WATER; for ABSOLUTE BASOPHIL / ABSOLUTE EOSINOPHIL / ABSOLUTE LYMPHOCYTE / ABSOLUTE MONOCYTE / ABSOLUTE SEGMENTED NEUTROPHIL / BASOPHIL / EOSINOPHIL / ERYTHROCYTE COUNT / HEMATOCRIT / HEMOGLOBIN / LEUKOCYTE COUNT / LYMPHOCYTE / MEAN CORPUSCULAR HEMOGLOBIN / MEAN CORPUSCULAR HEMOGLOBIN CONCENTRATION / MEAN CORPUSCULAR VOLUME / MONOCYTE / NEUTROPHIL / NUCLEATED RED BLOOD CELLS / PLATELET COUNT: tissue Blood; for ALANINE AMINOTRANSFERASE / ALBUMIN / ALKALINE PHOSPHATASE / ASPARTATE AMINOTRANSFERASE / BLOOD UREA NITROGEN / CARBON DIOXIDE / CHLORIDE / CHOLESTEROL / CREATINE PHOSPHOKINASE / CREATININE / GLUCOSE / LACTATE DEHYDROGENASE / LIPASE / PHOSPHORUS / POTASSIUM / SODIUM / TOTAL BILIRUBIN / TOTAL PROTEIN / URIC ACID: tissue Plasma
[1] = 900 mg/kg, 120 h, dose level Low, time 5 day
[2] = 5000 mg/kg, 72 h, dose level High, time 3 day
[3] = 5000 mg/kg, 120 h, dose level High, time 5 day

SMILES: Clc1ccc(C(c2ccccc2Cl)C(Cl)Cl)cc1 (centres undefined) [MITOTANE]
- ABSOLUTE BASOPHIL [1]: 0 CELLS/uL
- ABSOLUTE EOSINOPHIL [1]: 0 CELLS/uL
- ABSOLUTE LYMPHOCYTE [1]: 11920 CELLS/uL
- ABSOLUTE MONOCYTE [1]: 138 CELLS/uL
- ABSOLUTE SEGMENTED NEUTROPHIL [1]: 942 CELLS/uL
- BASOPHIL [1]: 0%
- EOSINOPHIL [1]: 0%
- ERYTHROCYTE COUNT [1]: 5.65 x10E6/uL
- HEMATOCRIT [1]: 36%
- HEMOGLOBIN [1]: 14.27 G/DL
- LEUKOCYTE COUNT [1]: 13 x10E3/uL
- LYMPHOCYTE [1]: 91.67%
- MEAN CORPUSCULAR HEMOGLOBIN [1]: 25.3 pg
- MEAN CORPUSCULAR HEMOGLOBIN CONCENTRATION [1]: 39.6 G/DL
- MEAN CORPUSCULAR VOLUME [1]: 63.73 fL
- MONOCYTE [1]: 1%
- NEUTROPHIL [1]: 7.33%
- NUCLEATED RED BLOOD CELLS [1]: 0 /100WBC
- PLATELET COUNT [1]: 1407.33 x10E3/uL
- ALANINE AMINOTRANSFERASE [1]: 52 u/L
- ALBUMIN [1]: 4.07 G/DL
- ALKALINE PHOSPHATASE [1]: 421.33 u/L
- ASPARTATE AMINOTRANSFERASE [1]: 89.67 u/L
- BLOOD UREA NITROGEN [1]: 13.67 mg/dL
- CARBON DIOXIDE [1]: 30.67 mmol/L
- CHLORIDE [1]: 100 MEQ/L
- CHOLESTEROL [1]: 71 mg/dL
- CREATINE PHOSPHOKINASE [1]: 382 u/L
- CREATININE [1]: 0.2 mg/dL
- GLUCOSE [1]: 148.67 mg/dL
- LACTATE DEHYDROGENASE [1]: 632.67 u/L
- LIPASE [1]: 11 u/L
- PHOSPHORUS [1]: 12.57 mg/dL
- POTASSIUM [1]: 6.42 MEQ/L
- SODIUM [1]: 142.8 MEQ/L
- TOTAL BILIRUBIN [1]: 0.13 mg/dL
- TOTAL PROTEIN [1]: 6.03 G/DL
- URIC ACID [1]: 2.17 mg/dL
- ABSOLUTE BASOPHIL [2]: 0 CELLS/uL
- ABSOLUTE EOSINOPHIL [2]: 124.33 CELLS/uL
- ABSOLUTE LYMPHOCYTE [2]: 15356 CELLS/uL
- ABSOLUTE MONOCYTE [2]: 296.33 CELLS/uL
- ABSOLUTE SEGMENTED NEUTROPHIL [2]: 556.67 CELLS/uL
- BASOPHIL [2]: 0%
- EOSINOPHIL [2]: 0.67%
- ERYTHROCYTE COUNT [2]: 5.76 x10E6/uL
- HEMATOCRIT [2]: 36.73%
- HEMOGLOBIN [2]: 14.3 G/DL
- LEUKOCYTE COUNT [2]: 16.33 x10E3/uL
- LYMPHOCYTE [2]: 94.67%
- MEAN CORPUSCULAR HEMOGLOBIN [2]: 24.83 pg
- MEAN CORPUSCULAR HEMOGLOBIN CONCENTRATION [2]: 38.93 G/DL
- MEAN CORPUSCULAR VOLUME [2]: 63.8 fL
- MONOCYTE [2]: 1.67%
- NEUTROPHIL [2]: 3%
- NUCLEATED RED BLOOD CELLS [2]: 0 /100WBC
- PLATELET COUNT [2]: 1407.33 x10E3/uL
- ALANINE AMINOTRANSFERASE [2]: 75.67 u/L
- ALBUMIN [2]: 3.93 G/DL
- ALKALINE PHOSPHATASE [2]: 512.67 u/L
- ASPARTATE AMINOTRANSFERASE [2]: 87 u/L
- BLOOD UREA NITROGEN [2]: 12.33 mg/dL
- CARBON DIOXIDE [2]: 32.67 mmol/L
- CHLORIDE [2]: 101 MEQ/L
- CHOLESTEROL [2]: 72.33 mg/dL
- CREATINE PHOSPHOKINASE [2]: 440.67 u/L
- CREATININE [2]: 0.19 mg/dL
- GLUCOSE [2]: 123.33 mg/dL
- LACTATE DEHYDROGENASE [2]: 189.33 u/L
- LIPASE [2]: 10.33 u/L
- PHOSPHORUS [2]: 11.37 mg/dL
- POTASSIUM [2]: 6.63 MEQ/L
- SODIUM [2]: 144.03 MEQ/L
- TOTAL BILIRUBIN [2]: 0.1 mg/dL
- TOTAL PROTEIN [2]: 6.13 G/DL
- URIC ACID [2]: 1.53 mg/dL
- ABSOLUTE BASOPHIL [3]: 0 CELLS/uL
- ABSOLUTE EOSINOPHIL [3]: 32.67 CELLS/uL
- ABSOLUTE LYMPHOCYTE [3]: 11464 CELLS/uL
- ABSOLUTE MONOCYTE [3]: 86.67 CELLS/uL
- ABSOLUTE SEGMENTED NEUTROPHIL [3]: 983.33 CELLS/uL
- BASOPHIL [3]: 0%
- EOSINOPHIL [3]: 0.33%
- ERYTHROCYTE COUNT [3]: 5.42 x10E6/uL
- HEMATOCRIT [3]: 34.3%
- HEMOGLOBIN [3]: 13.47 G/DL
- LEUKOCYTE COUNT [3]: 12.57 x10E3/uL
- LYMPHOCYTE [3]: 91.33%
- MEAN CORPUSCULAR HEMOGLOBIN [3]: 24.83 pg
- MEAN CORPUSCULAR HEMOGLOBIN CONCENTRATION [3]: 39.3 G/DL
- MEAN CORPUSCULAR VOLUME [3]: 63.2 fL
- MONOCYTE [3]: 0.67%
- NEUTROPHIL [3]: 7.67%
- NUCLEATED RED BLOOD CELLS [3]: 0 /100WBC
- PLATELET COUNT [3]: 1284 x10E3/uL
- ALANINE AMINOTRANSFERASE [3]: 63.67 u/L
- ALBUMIN [3]: 4.07 G/DL
- ALKALINE PHOSPHATASE [3]: 426.67 u/L
- ASPARTATE AMINOTRANSFERASE [3]: 73 u/L
- BLOOD UREA NITROGEN [3]: 15 mg/dL
- CARBON DIOXIDE [3]: 34.67 mmol/L
- CHLORIDE [3]: 97.33 MEQ/L
- CHOLESTEROL [3]: 99.67 mg/dL
- CREATINE PHOSPHOKINASE [3]: 400.67 u/L
- CREATININE [3]: 0.19 mg/dL
- GLUCOSE [3]: 133.33 mg/dL
- LACTATE DEHYDROGENASE [3]: 123.33 u/L
- LIPASE [3]: 11.33 u/L
- PHOSPHORUS [3]: 11.97 mg/dL
- POTASSIUM [3]: 6.85 MEQ/L
- SODIUM [3]: 141.7 MEQ/L
- TOTAL BILIRUBIN [3]: 0.2 mg/dL
- TOTAL PROTEIN [3]: 6.37 G/DL
- URIC ACID [3]: 1.57 mg/dL
